Reference: patent US9540391B2, “Isomannide derivatives as inhibitors of soluble epoxide hydrolase” (SANOFI, priority 2013, dated 2017)
Counter-ions that a name gives are not always drawn.

Target: T1, recombinant sEH (Homo sapiens, UniProt P34913)
T1 construct: made in house; host or cells: Sf9 insect cells
T1 sequence (P34913 1-555): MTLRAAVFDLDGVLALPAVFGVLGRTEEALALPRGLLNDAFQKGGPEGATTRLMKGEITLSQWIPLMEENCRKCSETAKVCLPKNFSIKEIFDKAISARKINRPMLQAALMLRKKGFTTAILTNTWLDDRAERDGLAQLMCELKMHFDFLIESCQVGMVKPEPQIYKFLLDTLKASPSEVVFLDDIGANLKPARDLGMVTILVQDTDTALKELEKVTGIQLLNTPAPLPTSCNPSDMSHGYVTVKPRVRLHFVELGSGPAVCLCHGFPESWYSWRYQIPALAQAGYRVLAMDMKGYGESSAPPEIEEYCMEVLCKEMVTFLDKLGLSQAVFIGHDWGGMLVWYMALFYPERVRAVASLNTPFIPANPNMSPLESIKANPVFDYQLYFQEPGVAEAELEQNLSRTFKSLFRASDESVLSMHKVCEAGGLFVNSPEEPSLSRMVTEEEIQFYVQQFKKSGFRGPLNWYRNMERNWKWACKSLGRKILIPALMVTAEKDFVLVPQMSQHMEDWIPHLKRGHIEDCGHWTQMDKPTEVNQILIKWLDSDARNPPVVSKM
Assay: biochemical screening assay for inhibition of soluble epoxide hydrolase (fluorometric, Phome substrate)
Procedure, shortened: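 Human sEH from Sf9 cells (2 nM final) was pre-incubated 15 min at 30 °C with compound (0.0001–10 μM), then reacted 60 min at 30 °C with 5 μM Phome in 25 mM Hepes/0.01% albumin. Fluorescence of released 6-methoxy-2-naphthaldehyde was read before substrate and at end; IC50 from % inhibition.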

IC50 [nM] | Compound
8 | CC(=O)NCCS[C@H]1CO[C@H]2[C@@H]1OC[C@@H]2NC(=O)NC1CCCCC1 [Example 16, N-{2-[(3S,3aS,6S,6aR)-6-(3-Cyclohexyl-ureido)-hexahydro-furo[3,2-b]furan-3-ylsulfanyl]-ethyl}-acetamide]
3 | O=C(NC1CCCCC1)N[C@H]1CO[C@H]2[C@@H]1OC[C@@H]2Oc1c[nH]c2ccccc12 [Example 5, 1-cyclohexyl-3-[(3S,3aR,6S,6aS)-6-(1H-indol-3-yloxy)-hexahydro-furo[3,2-b]furan-3-yl]-urea]
392 | O=C(NCc1ccc(F)cc1)N[C@H]1CO[C@H]2[C@@H]1OC[C@@H]2/C=C\c1ccsc1 [Example 338, 1-(4-Fluoro-benzyl)-3-[(3S,3aR,6S,6aR)-6-((Z)-2-thiophen-3-yl-vinyl)-hexahydro-furo[3,2-b]furan-3-yl]-urea]
23 | O=C(NC1CCCCC1)N[C@H]1CO[C@H]2[C@@H]1OC[C@@H]2Oc1cccc(C2CCNCC2)c1 [Example 108, 1-Cyclohexyl-3-[(3S,3aR,6S,6aS)-6-(3-piperidin-4-yl-phenoxy)-hexahydro-furo[3,2-b]furan-3-yl]-urea; trifluoroacetate]
846 | COCC(C)NC(=O)N[C@H]1CO[C@H]2[C@@H]1OC[C@@H]2Oc1cccnc1C (stereo partly drawn) [Example 183, 1-(2-Methoxy-1-methyl-ethyl)-3-[(3S,3aR,6S,6aS)-6-(2-methyl-pyridin-3-yloxy)-hexahydro-furo[3,2-b]furan-3-yl]-urea]
7 | O=C(NC1CCCCC1)N[C@H]1CO[C@H]2[C@@H]1OC[C@@H]2Oc1ccc(C(=O)N2CCOCC2)cc1 [Example 120, 1-Cyclohexyl-3-{(3S,3aR,6S,6aS)-6-[4-(morpholine-4-carbonyl)-phenoxy]-hexahydro-furo[3,2-b]furan-3-yl}-urea]
4 | O=C(NC1CCCCC1)N[C@H]1CO[C@H]2[C@@H]1OC[C@@H]2Oc1ccccc1CN1CCOCC1 [Example 123, 1-Cyclohexyl-3-[(3S,3aR,6S,6aS)-6-(2-morpholin-4-ylmethyl-phenoxy)-hexahydro-furo[3,2-b]furan-3-yl]-urea; trifluoroacetate]
262 | Cc1ncccc1O[C@H]1CO[C@H]2[C@@H]1OC[C@@H]2NC(=O)NCCc1ccc(S(C)(=O)=O)cc1 [Example 223, 1-[2-(4-Methanesulfonyl-phenyl)-ethyl]-3-[(3S,3aR,6S,6aS)-6-(2-methyl-pyridin-3-yloxy)-hexahydro-furo[3,2-b]furan-3-yl]-urea]
3 | O=C(NC1CCCCC1)N[C@H]1CO[C@H]2[C@@H]1OC[C@@H]2Oc1ccc(Br)cc1 [Example 138, 1-[(3S,3aR,6S,6aS)-6-(4-Bromo-phenoxy)-hexahydro-furo[3,2-b]furan-3-yl]-3-cyclohexyl-urea]
6 | NC(=O)c1cccc(O[C@H]2CO[C@H]3[C@@H]2OC[C@@H]3NC(=O)NC2CCCCC2)c1 [Example 143, 3-[(3S,3aS,6S,6aR)-6-(3-Cyclohexyl-ureido)-hexahydro-furo[3,2-b]furan-3-yloxy]-benzamide]
8 | Cc1ncccc1O[C@H]1CO[C@H]2[C@@H]1OC[C@@H]2NC(=O)NC1CCC(C(C)(C)C)CC1 (stereo partly drawn) [Example 260, 1-(4-tert-Butyl-cyclohexyl)-3-[(3S,3aR,6S,6aS)-6-(2-methyl-pyridin-3-yloxy)-hexahydro-furo[3,2-b]furan-3-yl]-urea]
107 | CSc1cccc(NC(=O)N[C@H]2CO[C@H]3[C@@H]2OC[C@@H]3C#Cc2ccsc2)c1 [Example 312, 1-(3-Methylsulfanyl-phenyl)-3-((3S,3aR,6S,6aR)-6-thiophen-3-ylethynyl-hexahydro-furo[3,2-b]furan-3-yl)-urea]
3520 | Cc1ncccc1O[C@H]1CO[C@H]2[C@@H]1OC[C@@H]2NC(=O)NC1CCN(C)C1=O (stereo partly drawn) [Example 252, 1-(1-Methyl-2-oxo-pyrrolidin-3-yl)-3-[(3S,3aR,6S,6aS)-6-(2-methyl-pyridin-3-yloxy)-hexahydro-furo[3,2-b]furan-3-yl]-urea]
1 | Cc1cncc(O[C@H]2CO[C@H]3[C@@H]2OC[C@@H]3NC(=O)NC2CCCCC2)c1 [Example 36, 1-Cyclohexyl-3-[(3S,3aR,6S,6aS)-6-(5-methyl-pyridin-3-yloxy)-hexa-hydro-furo[3,2-b]furan-3-yl]-urea]
3 | Cc1ncccc1O[C@H]1CO[C@H]2[C@@H]1OC[C@@H]2NC(=O)NC[C@@H]1C[C@@H]2C[C@H]([C@H]1C)C2(C)C [Example 213, 1-[(3S,3aR,6S,6aS)-6-(2-Methyl-pyridin-3-yloxy)-hexahydro-furo[3,2-b]furan-3-yl]-3-((1R,2R,3R,5S)-2,6,6-trimethyl-bicyclo[3.1.1]hept-3-ylmethyl)-urea]
96 | Cc1ncccc1O[C@H]1CO[C@H]2[C@@H]1OC[C@@H]2NC(=O)NCC1(O)CCCCC1 [Example 182, 1-(1-Hydroxy-cyclohexylmethyl)-3-[(3S,3aR,6S,6aS)-6-(2-methyl-pyridin-3-yloxy)-hexahydro-furo[3,2-b]furan-3-yl]-urea]
4 | CC1(c2ccc(O[C@H]3CO[C@H]4[C@@H]3OC[C@@H]4NC(=O)NC3CCCCC3)cc2)CCCCC1 [Example 124, 1-Cyclohexyl-3-{(3S,3aR,6S,6aS)-6-[4-(1-methyl-cyclohexyl)-phenoxy]-hexahydro-furo[3,2-b]furan-3-yl}-urea]
456 | Cc1ncccc1O[C@H]1CO[C@H]2[C@@H]1OC[C@@H]2NC(=O)NCc1cccnc1 [Example 177, 1-[(3S,3aR,6S,6aS)-6-(2-Methyl-pyridin-3-yloxy)-hexahydro-furo[3,2-b]furan-3-yl]-3-pyridin-3-ylmethyl-urea]
127 | O=C(Nc1ccccc1)NC1COC2C(CCc3ccccc3)COC12 [Example 354, 1-[(3S,3aR,6R)-6-((S)-Phenethyl)-hexa-hydro-furo[3,2-b]furan-3-yl]-3-phenyl-urea]
22 | Cc1ncccc1O[C@H]1CO[C@H]2[C@@H]1OC[C@@H]2NC(=O)NC1CCOC(C)C1 (stereo partly drawn) [Example 91, 1-[(3S,3aR,6S,6aS)-6-(2-methyl-pyridin-3-yloxy)-hexahydro-furo[3,2-b]furan-3-yl]-3-(2-methyl-tetrahydro-pyran-4-yl)-urea]
1470 | Cc1ncccc1O[C@H]1CO[C@H]2[C@@H]1OC[C@@H]2NC(=O)NCC1COCCO1 (stereo partly drawn) [Example 194, 1-[1,4]Dioxan-2-ylmethyl-3-[(3S,3aR,6S,6aS)-6-(2-methyl-pyridin-3-yloxy)-hexahydro-furo[3,2-b]furan-3-yl]-urea]
1 | CC(C)S[C@H]1CO[C@H]2[C@@H]1OC[C@@H]2NC(=O)NC1CCCCC1 [Example 17, 1-Cyclohexyl-3-((3S,3aR,6S,6aS)-6-isopropylsulfanyl-hexahydro-furo[3,2-b]furan-3-yl)-urea]
3 | O=C(NC1CCCCC1)N[C@H]1CO[C@H]2[C@@H]1OC[C@@H]2Oc1cccc(Cl)c1Cl [Example 97, 1-Cyclohexyl-3-[(3S,3aR,6S,6aS)-6-(2,3-dichloro-phenoxy)-hexahydro-furo[3,2-b]furan-3-yl]-urea]
389 | Cc1nc(CCNC(=O)N[C@H]2CO[C@H]3[C@@H]2OC[C@@H]3Oc2cccnc2C)cs1 [Example 218, 1-[(3S,3aR,6S,6aS)-6-(2-Methyl-pyridin-3-yloxy)-hexahydro-furo[3,2-b]furan-3-yl]-3-[2-(2-methyl-thiazol-4-yl)-ethyl]-urea]
11 | O=C(NC1CCN(C(=O)C(F)(F)F)CC1)N[C@H]1CO[C@H]2[C@@H]1OC[C@@H]2Oc1ccc(F)cc1 [Example 157, 1-[(3S,3aR,6S,6aS)-6-(4-Fluoro-phenoxy)-hexahydro-furo[3,2-b]furan-3-yl]-3-[1-(2,2,2-trifluoro-acetyl)-piperidin-4-yl]-urea]
545 | Cc1ncccc1O[C@H]1CO[C@H]2[C@@H]1OC[C@@H]2NC(=O)NCC1CCC(=O)N1C (stereo partly drawn) [Example 255, 1-(1-Methyl-5-oxo-pyrrolidin-2-ylmethyl)-3-[(3S,3aR,6S,6aS)-6-(2-methyl-pyridin-3-yloxy)-hexahydro-furo[3,2-b]furan-3-yl]-urea]
4 | N#Cc1ccc(S[C@H]2CO[C@H]3[C@@H]2OC[C@@H]3NC(=O)NC2CCCCC2)nc1 [Example 60, 1-[(3S,3aR,6S,6aS)-6-(5-Cyano-pyridin-2-ylsulfanyl)-hexahydro-furo[3,2-b]furan-3-yl]-3-cyclohexyl-urea]
3 | O=C(NC1CCCCC1)N[C@H]1CO[C@H]2[C@@H]1OC[C@@H]2Oc1ccccc1 [Example 115, 1-Cyclohexyl-3-((3S,3aR,6S,6aS)-6-phenoxy-hexahydro-furo[3,2-b]furan-3-yl)-urea]
140 | O=C(NC1CCCCC1)N[C@H]1CO[C@H]2[C@@H]1OC[C@@H]2Oc1ccccc1C(=O)N1CCCC1 [Example 110, 1-Cyclohexyl-3-{(3S,3aR,6S,6aS)-6-[2-(pyrrolidine-1-carbonyl)-phenoxy]-hexahydro-furo[3,2-b]furan-3-yl}-urea]
12 | O=C(NC1CCCCC1)NC1COC2C(C#Cc3ccccc3)COC12 [Example 282, 1-Cyclohexyl-3-((3S,3aR,6S,-6aR)-6-phenylethynyl-hexa-hydro-furo[3,2-b]furan-3-yl)-urea]
